Data as given in the supplement of paper PMC10307832.

Legend:
Assay in all cases: relative viability (nuclei count vs DMSO), 5 days (fraction); higher = more cells survive
[1] = compound: CC1=C(C(=O)N2C=CSC2=N1)CCN3CCC(=C(C4=CC=CC=C4)C5=CC=C(C=C5)F)CC3 + CC(C)C[C@H](NC(=O)[C@H](Cc1ccccc1)NC(=O)c1cnccn1)B(O)O [Bortezomib] (partner 0.002 µM)
Outline: (§1)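 One day after seeding in 1536-well plates, lung cancer cell lines were dosed by pin tool. Dosing was either single-drug or a fixed anchor-drug dose plus five library-drug doses (not always all listed) in √10 steps. After 5 days, nuclei were stained in one fix-and-stain step and counted on 4× images, and relative viability is the nuclei count of treated wells over that of vehicle wells, given as the median of duplicate plates.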

[2] = compound: CC1=C(C(=O)N2C=CSC2=N1)CCN3CCC(=C(C4=CC=CC=C4)C5=CC=C(C=C5)F)CC3 + CCNC(=O)c1noc(-c2cc(C(C)C)c(O)cc2O)c1-c1ccc(CN2CCOCC2)cc1 [Luminespib] (partner 0.01 µM)
Outline: as §1

[3] = compound: CC1=C(C(=O)N2C=CSC2=N1)CCN3CCC(=C(C4=CC=CC=C4)C5=CC=C(C=C5)F)CC3 + CC(=O)c1c(C)c2cnc(Nc3ccc(N4CCNCC4)cn3)nc2n(C2CCCC2)c1=O [Palbociclib] (partner 0.5 µM)
Outline: as §1

[4] = compound: CC1=C(C(=O)N2C=CSC2=N1)CCN3CCC(=C(C4=CC=CC=C4)C5=CC=C(C=C5)F)CC3 + Cc1nc(Nc2ncc(C(=O)Nc3c(C)cccc3Cl)s2)cc(N2CCN(CCO)CC2)n1 [Dasatinib] (partner 0.075 µM)
Outline: as §1

| Cell Line | relative viability ([1]; first compound 0.08 µM) | relative viability ([1]; first compound 0.253 µM) | relative viability ([1]; first compound 0.8 µM) | relative viability ([1]; first compound 2.53 µM) | relative viability ([1]; first compound 8 µM) | relative viability ([2]; first compound 0.08 µM) | relative viability ([2]; first compound 0.253 µM) | relative viability ([2]; first compound 0.8 µM) | relative viability ([2]; first compound 2.53 µM) | relative viability ([2]; first compound 8 µM) | relative viability ([3]; first compound 0.08 µM) | relative viability ([3]; first compound 0.253 µM) | relative viability ([3]; first compound 0.8 µM) | relative viability ([3]; first compound 2.53 µM) | relative viability ([3]; first compound 8 µM) | relative viability ([4]; first compound 0.08 µM) | relative viability ([4]; first compound 0.253 µM) | relative viability ([4]; first compound 0.8 µM) | relative viability ([4]; first compound 2.53 µM) | relative viability ([4]; first compound 8 µM) |
| --- | --- | --- | --- | --- | --- | --- | --- | --- | --- | --- | --- | --- | --- | --- | --- | --- | --- | --- | --- | --- |
| COR-L23 | 0.701 | 0.74 | 1.02 | 1.18 | 0.397 | 0.61 | 0.831 | 0.785 | 0.671 | 0.504 | 0.292 | 0.306 | 0.255 | 0.286 | 0.27 | 0.383 | 0.341 | 0.457 | 0.59 | 0.403 |
| LK-2 | – | – | – | – | – | 0.154 | 0.21 | 0.186 | 0.191 | 0.162 | 0.766 | 0.607 | 0.822 | 0.791 | 0.575 | 0.273 | 0.249 | 0.354 | 0.282 | 0.268 |
| CAL-12T | – | 0.745 | 0.843 | 1.03 | 0.733 | 0.224 | 0.501 | 0.384 | 0.502 | 0.385 | 0.371 | 0.389 | 0.434 | 0.462 | 0.319 | 0.319 | 0.268 | 0.373 | 0.527 | 0.279 |
| NCI-H1437 | – | 0.398 | 0.476 | 0.484 | 0.351 | 1.11 | 1.21 | 1.28 | 1.27 | 0.739 | 0.297 | 0.317 | 0.325 | 0.323 | 0.257 | 0.471 | 0.346 | 0.434 | 0.426 | 0.339 |
| NCI-H23 | 0.705 | 1.08 | 1.1 | 0.974 | 0.545 | 0.205 | 0.207 | 0.22 | 0.23 | 0.241 | 0.542 | 0.492 | 0.463 | 0.568 | 0.403 | 0.659 | 0.674 | 0.867 | 0.703 | 0.518 |
| NCI-H727 | 0.802 | 1.03 | 0.997 | 0.858 | 0.633 | 0.284 | 0.668 | 0.346 | 0.331 | 0.38 | 0.582 | 0.547 | 0.577 | 0.665 | 0.701 | 0.319 | 0.338 | 0.394 | 0.396 | 0.319 |
| NCI-H1915 | 1.02 | 0.864 | 1.1 | 0.971 | 0.472 | 1.01 | 0.655 | 0.797 | 0.656 | 0.499 | 0.559 | 0.542 | 0.496 | 0.498 | 0.397 | 0.371 | 0.315 | 0.305 | 0.374 | 0.252 |
| NCI-H1648 | – | – | – | – | – | – | – | – | – | – | 0.254 | 0.316 | 0.22 | 0.326 | 0.249 | – | – | – | – | – |
| NCI-H3122 | 1.04 | 1.04 | 0.993 | 1.14 | 1.16 | 0.0707 | 0.131 | 0.1 | 0.0895 | 0.0997 | 0.178 | 0.213 | 0.192 | 0.164 | 0.157 | 1.02 | 0.769 | 0.781 | 1.06 | 0.524 |
| HCC-827 | 0.975 | 0.843 | 1.01 | 1.11 | 0.987 | 0.742 | 0.606 | 0.552 | 0.781 | 0.342 | 0.483 | 0.496 | 0.491 | 0.486 | 0.455 | 0.212 | 0.288 | 0.38 | 0.3 | 0.265 |
| EMC-BAC-2 | 0.902 | 1.13 | 1.07 | 1.07 | 0.705 | 1.23 | 1.15 | 1.28 | 1.16 | 1.03 | 0.497 | 0.494 | 0.493 | 0.46 | 0.506 | 0.287 | 0.329 | 0.277 | 0.328 | 0.298 |
| NCI-H522 | – | – | – | – | – | 1.18 | 1.16 | 1.21 | 1.2 | 0.897 | 1.08 | 1.09 | 0.809 | 0.977 | 0.933 | 0.901 | 0.549 | 0.998 | 0.855 | 0.733 |
| NCI-H2009 | 1.25 | 1.11 | 0.986 | 1.03 | 0.88 | 0.973 | 0.955 | 1.08 | 1.11 | 0.9 | 0.231 | 0.175 | 0.186 | 0.204 | 0.21 | 0.369 | 0.304 | 0.28 | 0.332 | 0.285 |
| SK-LU-1 | 1.08 | 0.965 | 1.05 | 1.19 | 1.01 | 0.228 | 0.217 | 0.192 | 0.21 | 0.184 | 0.378 | 0.375 | 0.406 | 0.416 | 0.36 | 0.196 | 0.172 | 0.19 | 0.18 | 0.178 |
| LU99A | 1.23 | 1.11 | 1.05 | 1.14 | 0.904 | 0.274 | 0.262 | 0.282 | 0.205 | 0.259 | 0.383 | 0.367 | 0.416 | 0.387 | 0.447 | 0.507 | 0.544 | 0.57 | 0.551 | 0.422 |
| NCI-H1793 | – | – | – | – | – | 0.167 | 0.207 | 0.161 | 0.178 | 0.168 | 0.212 | 0.311 | 0.272 | 0.345 | 0.318 | 0.363 | 0.328 | 0.415 | 0.467 | 0.233 |
| LC-2-ad | 1.05 | 0.799 | 1.03 | 1.22 | 0.827 | 1.27 | 1.36 | 1.12 | 1.19 | 0.918 | 0.463 | 0.459 | 0.475 | 0.473 | 0.458 | 0.766 | 0.538 | 0.422 | 0.644 | 0.497 |
| IA-LM | 0.621 | 0.757 | 0.711 | 0.843 | 0.63 | – | – | – | – | – | – | – | – | – | – | – | – | – | – | – |
